Assay results taken from paper PMC10863309 (Redox Biology, 2024).
“And” between values parts separate entries of the source, which are not always exact repeats. Equal values may be shown once. Read-outs that look alike come from different tables or passages of the source.

Tests used:
BV2 cells = assay: MTT cell viability assay; assay type: cell-based, mouse
[1] = test system: LPS-induced NO release of BV2 microglial cells; assay: Nitrite quantification; assay type: cell-based, mouse; conditions: 1 h pretreatment, LPS 800 ng/ml 24 h
[2] = Mus musculus, BV-2, read-out: Cell viability IC50

Compound | IC50 (BV2 cells; read-out: Cell viability IC50, BV2 microglial cells) | NO Inhibition (% of LPS) LPS/drugs (0.7 μM) [1] | NO Inhibition (% of LPS) LPS/drugs (1.5 μM) [1] | IC50 (BV2 cells; [2]) | NO Inhibition (% of LPS) LPS/drugs (12 μM) ([1]; 12 μM) | NO Inhibition (% of LPS) LPS/drugs (25 μM) ([1]; 25 μM) | NO Inhibition (% of LPS) LPS/drugs (50 μM) ([1]; 50 μM) | NO Inhibition (% of LPS) LPS/drugs (3 μM) ([1]; 3 μM)
lochnericine [Compound 2] | 28.7 ± 1.2 µM | 11.2 ± 2.0 % of LPS | 31.3 ± 3.2 % of LPS |  |  |  |  | 
C[C@@H]1C[C@H]2[C@@H]3CCC4=CC(=O)C=C[C@]4(C)[C@@]3(F)[C@@H](O)C[C@]2(C)[C@@]1(O)C(=O)CO [Dexamethasone, reference compound] |  |  |  | > 100 µM | 61.9 ± 4.7 % of LPS | 71.1 % of LPS and 71.1 ± 3.0 % of LPS | 75.1 ± 1.9 % of LPS | 
CC[C@]12C=CCN3CC[C@]4(C(=C(C(=O)OC)C1)Nc1ccccc14)[C@@H]32 [Compound 7, tabersonine] |  | 18.8 ± 7.0 % of LPS | 29.3 ± 3.1 % of LPS | 16.1 ± 1.1 µM |  |  |  | 45.9 ± 2.4 % of LPS
